Test results reported in ChEMBL document CHEMBL1909046, “DrugMatrix in vitro pharmacology data”.

Experiments:
[1] = molecular target: Melanocortin receptor 5 (Homo sapiens, UniProt P33032); assay type: cell membranes, HEK293, Membrane; details: hek293; note: in other assays of this panel Not Active means under 50% inhibition at 10 µM
[2] = molecular target: Mitogen-activated protein kinase 14 (Homo sapiens, UniProt Q16539); set-up: species or system Escherichia coli;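 note: inhibition of p38alpha enzyme activity in a biochemical kinase assay, with myelin basic protein serving as substrate; in other assays of this panel Not Active means under 50% inhibition at 10 µM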
Chain of Mitogen-activated protein kinase 14 (Q16539 whole entry): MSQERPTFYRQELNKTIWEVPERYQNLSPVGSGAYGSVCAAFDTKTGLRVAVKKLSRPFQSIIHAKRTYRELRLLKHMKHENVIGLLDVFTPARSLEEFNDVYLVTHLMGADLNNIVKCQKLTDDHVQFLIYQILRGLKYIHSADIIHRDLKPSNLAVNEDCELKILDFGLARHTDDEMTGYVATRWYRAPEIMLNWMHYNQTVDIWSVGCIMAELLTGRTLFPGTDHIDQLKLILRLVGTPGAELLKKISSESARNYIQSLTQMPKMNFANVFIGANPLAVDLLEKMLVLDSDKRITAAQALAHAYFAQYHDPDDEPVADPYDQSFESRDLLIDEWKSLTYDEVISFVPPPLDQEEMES

[3] = molecular target: T1, Cholecystokinin receptor type A (Homo sapiens, UniProt P32238); assay type: cell membranes, Membrane; details: 1321-n1; note: in other assays of this panel Not Active means under 50% inhibition at 10 µM
T1 sequence (P32238 whole entry): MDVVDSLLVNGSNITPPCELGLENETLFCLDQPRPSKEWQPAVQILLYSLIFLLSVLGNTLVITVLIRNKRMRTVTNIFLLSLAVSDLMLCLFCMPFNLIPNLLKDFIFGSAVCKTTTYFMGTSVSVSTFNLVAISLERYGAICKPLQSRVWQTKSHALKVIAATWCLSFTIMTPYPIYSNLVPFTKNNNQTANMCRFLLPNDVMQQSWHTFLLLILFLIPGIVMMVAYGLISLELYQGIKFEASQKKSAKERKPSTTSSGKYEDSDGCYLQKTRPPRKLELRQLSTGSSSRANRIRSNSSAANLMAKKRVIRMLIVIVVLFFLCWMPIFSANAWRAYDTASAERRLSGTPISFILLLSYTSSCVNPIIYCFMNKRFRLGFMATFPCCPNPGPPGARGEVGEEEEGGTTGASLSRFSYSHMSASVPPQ

[4] = DRUGMATRIX: Interleukin IL-1 radioligand binding (ligand: [125I] interleukin 1beta); assay type: cell membranes, Membrane; details: nih3t3; Not Active = under 50% inhibition at 10 µM
[5] = molecular target: T2, Angiotensin-converting enzyme (Oryctolagus cuniculus, UniProt P12822); assay type: tissue-based, Lung;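 note: enzymatic inhibition of angiotensin-converting enzyme measured with FAPGG as the substrate; in other assays of this panel Not Active means under 50% inhibition at 10 µM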
T2 sequence (P12822 whole entry): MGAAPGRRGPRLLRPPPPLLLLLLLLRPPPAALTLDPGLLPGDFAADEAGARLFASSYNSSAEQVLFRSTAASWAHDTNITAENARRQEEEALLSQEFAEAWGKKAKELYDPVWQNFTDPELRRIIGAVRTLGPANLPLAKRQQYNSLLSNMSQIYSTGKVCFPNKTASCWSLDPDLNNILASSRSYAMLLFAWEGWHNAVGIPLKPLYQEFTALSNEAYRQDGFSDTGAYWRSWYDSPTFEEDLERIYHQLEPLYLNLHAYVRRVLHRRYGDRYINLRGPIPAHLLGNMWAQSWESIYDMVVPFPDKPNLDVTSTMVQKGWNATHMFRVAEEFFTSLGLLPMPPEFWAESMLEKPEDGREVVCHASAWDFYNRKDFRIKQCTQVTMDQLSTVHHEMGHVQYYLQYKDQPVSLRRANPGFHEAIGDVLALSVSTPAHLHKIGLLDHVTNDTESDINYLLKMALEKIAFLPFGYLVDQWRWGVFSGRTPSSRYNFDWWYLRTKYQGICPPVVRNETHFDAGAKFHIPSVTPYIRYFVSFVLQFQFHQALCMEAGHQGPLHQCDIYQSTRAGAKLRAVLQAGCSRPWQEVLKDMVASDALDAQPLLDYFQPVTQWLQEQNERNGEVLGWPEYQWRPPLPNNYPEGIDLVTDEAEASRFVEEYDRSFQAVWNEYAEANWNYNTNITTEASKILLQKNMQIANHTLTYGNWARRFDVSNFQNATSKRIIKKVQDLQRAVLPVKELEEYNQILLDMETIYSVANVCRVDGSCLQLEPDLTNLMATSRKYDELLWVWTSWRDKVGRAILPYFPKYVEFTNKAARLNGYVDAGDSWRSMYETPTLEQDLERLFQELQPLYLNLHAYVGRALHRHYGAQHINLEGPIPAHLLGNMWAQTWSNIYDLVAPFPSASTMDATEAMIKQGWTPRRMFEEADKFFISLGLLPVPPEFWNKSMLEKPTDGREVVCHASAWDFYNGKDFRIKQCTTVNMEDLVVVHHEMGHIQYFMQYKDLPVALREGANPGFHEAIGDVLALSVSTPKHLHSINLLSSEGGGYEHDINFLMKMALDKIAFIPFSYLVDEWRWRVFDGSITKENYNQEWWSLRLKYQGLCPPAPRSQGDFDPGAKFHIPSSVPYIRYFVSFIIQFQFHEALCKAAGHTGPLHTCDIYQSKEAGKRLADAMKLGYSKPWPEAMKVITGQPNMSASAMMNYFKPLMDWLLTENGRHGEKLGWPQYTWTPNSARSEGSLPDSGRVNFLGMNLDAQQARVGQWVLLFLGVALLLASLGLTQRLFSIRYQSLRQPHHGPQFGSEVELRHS

[6] = molecular target: Tyrosine-protein kinase Fyn (Homo sapiens, UniProt P06241); test: biochemical; assay type: cell-based, Insect cells; details: insect cells
Chain of Tyrosine-protein kinase Fyn (P06241 whole entry): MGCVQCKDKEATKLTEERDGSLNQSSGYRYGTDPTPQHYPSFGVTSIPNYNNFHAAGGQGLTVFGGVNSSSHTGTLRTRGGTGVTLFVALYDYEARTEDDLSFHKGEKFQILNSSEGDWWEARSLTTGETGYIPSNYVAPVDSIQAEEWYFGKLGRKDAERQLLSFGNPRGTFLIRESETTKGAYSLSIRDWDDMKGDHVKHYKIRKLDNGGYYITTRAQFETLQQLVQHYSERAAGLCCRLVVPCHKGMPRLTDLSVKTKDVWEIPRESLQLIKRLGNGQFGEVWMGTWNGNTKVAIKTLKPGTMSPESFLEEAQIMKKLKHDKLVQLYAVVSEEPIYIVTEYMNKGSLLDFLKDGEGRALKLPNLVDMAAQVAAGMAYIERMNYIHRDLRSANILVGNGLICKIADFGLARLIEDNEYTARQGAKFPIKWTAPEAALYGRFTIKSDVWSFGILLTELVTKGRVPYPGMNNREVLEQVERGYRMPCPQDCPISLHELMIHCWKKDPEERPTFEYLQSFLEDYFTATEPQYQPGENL

[7] = molecular target: T3, Interstitial collagenase (Homo sapiens, UniProt P03956); test: biochemical; assay type: tissue-based, Rheumatoid synovial fibroblasts
T3 sequence (P03956 whole entry): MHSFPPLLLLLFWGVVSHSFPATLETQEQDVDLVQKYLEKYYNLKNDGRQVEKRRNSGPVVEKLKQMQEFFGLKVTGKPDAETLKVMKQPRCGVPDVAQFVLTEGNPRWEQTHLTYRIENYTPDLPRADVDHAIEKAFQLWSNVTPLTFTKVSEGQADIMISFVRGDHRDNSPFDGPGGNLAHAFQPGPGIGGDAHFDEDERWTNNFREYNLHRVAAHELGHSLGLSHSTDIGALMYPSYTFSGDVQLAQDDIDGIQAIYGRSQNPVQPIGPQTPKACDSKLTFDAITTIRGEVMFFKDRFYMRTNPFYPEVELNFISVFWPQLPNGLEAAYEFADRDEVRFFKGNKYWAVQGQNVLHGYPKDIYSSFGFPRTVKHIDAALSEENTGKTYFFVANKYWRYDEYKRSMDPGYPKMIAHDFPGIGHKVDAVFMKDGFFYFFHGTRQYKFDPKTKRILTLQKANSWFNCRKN

Chain of Melanocortin receptor 5 (P33032 whole entry): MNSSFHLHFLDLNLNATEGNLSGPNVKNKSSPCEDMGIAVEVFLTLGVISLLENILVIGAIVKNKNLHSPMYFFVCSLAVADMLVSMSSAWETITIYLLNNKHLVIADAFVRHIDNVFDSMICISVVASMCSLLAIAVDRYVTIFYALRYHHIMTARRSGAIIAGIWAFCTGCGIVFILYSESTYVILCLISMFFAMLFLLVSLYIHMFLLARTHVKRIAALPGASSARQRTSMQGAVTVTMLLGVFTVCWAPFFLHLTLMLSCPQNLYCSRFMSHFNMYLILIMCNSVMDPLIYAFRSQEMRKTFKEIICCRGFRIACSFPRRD

Cc1ccc(C)c(OCCCC(C)(C)C(=O)O)c1 [GEMFIBROZIL]
Not Active: IC50 [1] | IC50 [2] | IC50 [3] | IC50 [4] | Ki [4] | IC50 [5] | IC50 [6] | IC50 [7]

O=c1c(-c2ccc(O)cc2)coc2cc(O)cc(O)c12 [GENISTEIN]
Not Active: IC50 [1] | IC50 [2] | IC50 [3] | IC50 [4] | Ki [4] | IC50 [5] | IC50 [6] | IC50 [7]

CCC1=C(C)CN(C(=O)NCCc2ccc(S(=O)(=O)NC(=O)N[C@H]3CC[C@H](C)CC3)cc2)C1=O [GLIMEPIRIDE]
Not Active: IC50 [1] | IC50 [2] | IC50 [3] | IC50 [4] | Ki [4] | IC50 [5] | IC50 [6] | IC50 [7]

Nc1cc(-c2ccncc2)c[nH]c1=O [INAMRINONE]
Not Active: IC50 [1] | IC50 [2] | IC50 [3] | IC50 [4] | Ki [4] | IC50 [5] | IC50 [6] | IC50 [7]

CCCCC1=NC2(CCCC2)C(=O)N1Cc1ccc(-c2ccccc2-c2nnn[nH]2)cc1 [IRBESARTAN]
Not Active: IC50 [1] | IC50 [2] | IC50 [3] | IC50 [4] | Ki [4] | IC50 [5] | IC50 [6] | IC50 [7]

CN1CCC(=C2c3ccccc3CC(=O)c3sccc32)CC1 [KETOTIFEN]
Not Active: IC50 [1] | IC50 [2] | IC50 [3] | IC50 [4] | Ki [4] | IC50 [5] | IC50 [6] | IC50 [7]

N[C@@H](Cn1ccc(=O)c(O)c1)C(=O)O [L-MIMOSINE]
Not Active: IC50 [1] | IC50 [2] | IC50 [3] | IC50 [4] | Ki [4] | IC50 [5] | IC50 [6] | IC50 [7]

C[N+](C)(C)C[C@H](O)CC(=O)[O-] [LEVOCARNITINE]
Not Active: IC50 [1] | IC50 [2] | IC50 [3] | IC50 [4] | Ki [4] | IC50 [5] | IC50 [6] | IC50 [7]

C[C@H]1COc2c(N3CCN(C)CC3)c(F)cc3c(=O)c(C(=O)O)cn1c23.C[C@H]1COc2c(N3CCN(C)CC3)c(F)cc3c(=O)c(C(=O)O)cn1c23.O [LEVOFLOXACIN]
Not Active: IC50 [1] | IC50 [2] | IC50 [3] | IC50 [4] | Ki [4] | IC50 [5] | IC50 [6] | IC50 [7]

CCn1cc(C(=O)O)c(=O)c2cc(F)c(N3CCNC(C)C3)c(F)c21 (stereo not drawn) [LOMEFLOXACIN]
Not Active: IC50 [1] | IC50 [2] | IC50 [3] | IC50 [4] | Ki [4] | IC50 [5] | IC50 [6] | IC50 [7]

CN1CCCC(CN2c3ccccc3Sc3ccccc32)C1 (stereo not drawn) [MEPAZINE]
Not Active: IC50 [1] | IC50 [2] | IC50 [3] | IC50 [4] | Ki [4] | IC50 [5] | IC50 [6] | IC50 [7]

Cc1cccc(C)c1NC(=O)C1CCCCN1C (stereo not drawn) [MEPIVACAINE]
Not Active: IC50 [1] | IC50 [2] | IC50 [3] | IC50 [4] | Ki [4] | IC50 [5] | IC50 [6] | IC50 [7]

CN(C)C(=N)NC(=N)N [METFORMIN]
Not Active: IC50 [1] | IC50 [2] | IC50 [3] | IC50 [4] | Ki [4] | IC50 [5] | IC50 [6] | IC50 [7]

CC(C)(C)NCC(O)COc1cccc2c1CC(O)C(O)C2 (stereo not drawn) [NADOLOL]
Not Active: IC50 [1] | IC50 [2] | IC50 [3] | IC50 [4] | Ki [4] | IC50 [5] | IC50 [6] | IC50 [7]

C[C@]12CC[C@H]3[C@@H](CCC4=CC(=O)CC[C@@H]43)[C@@H]1CC[C@@H]2O [NANDROLONE]
Not Active: IC50 [1] | IC50 [2] | IC50 [3] | IC50 [4] | Ki [4] | IC50 [5] | IC50 [6] | IC50 [7]

C[C@@H]1C/C=C/C=C/C=C/C=C/[C@H](O[C@@H]2O[C@H](C)[C@@H](O)[C@H](N)[C@@H]2O)C[C@@H]2O[C@](O)(C[C@@H](O)C[C@H]3O[C@@H]3/C=C/C(=O)O1)C[C@H](O)[C@H]2C(=O)O [NATAMYCIN]
Not Active: IC50 [1] | IC50 [2] | IC50 [3] | IC50 [4] | Ki [4] | IC50 [5] | IC50 [6] | IC50 [7]
